Like-named read-outs stand apart in the source and are kept apart here.
Key:
[1] = target: EGFR del19/T790M/C797S (Homo sapiens, UniProt P00533, C797S/DEL746-750/T790M); test: Biochemical EGFR kinase assay (Lance Ultra TR-FRET), triple mutant del19/T790M/C797S
Summary of the method: (§1)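 Step 1: compound in kinase buffer, 0.003–10 μM. Step 2: kinase reaction 1 h at room temperature. Step 4: TR-FRET read at 615/665 nm; IC50 calculated.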

[2] = target: EGFR wildtype (WT) (Homo sapiens, UniProt P00533); test: Biochemical EGFR kinase assay (Lance Ultra TR-FRET), wildtype
Summary of the method: as §1

[3] = target: EGFR del19/C797S (Homo sapiens, UniProt P00533, C797S/DEL746-750); test: Biochemical EGFR kinase assay (Lance Ultra TR-FRET), double mutant del19/C797S
Summary of the method: as §1

[4] = target: EGFR L858R/T790M/C797S (Homo sapiens, UniProt P00533, C797S/L858R/T790M); test: Biochemical EGFR kinase assay (Lance Ultra TR-FRET), triple mutant L858R/T790M/C797S
Summary of the method: as §1

[5] = target: EGFR L858R/C797S (Homo sapiens, UniProt P00533, C797S/L858R); test: Biochemical EGFR kinase assay (Lance Ultra TR-FRET), double mutant L858R/C797S
Summary of the method: as §1

[6] = IC50 del19/T790M/C797S (nM) 100 μM ATP, 100 μM ATP
[7] = IC50 WT (nM) 100 μM ATP, 100 μM ATP
[8] = IC50 del19/C797S (nM) 100 μM ATP, 100 μM ATP
[9] = IC50 L858R/T790M/C797S (nM) 100 μM ATP, 100 μM ATP
[10] = IC50 L858R/C797S (nM) 100 μM ATP, 100 μM ATP
[11] = Km ATP, read-out: IC50 del19/T790M/C797S (nM) Km ATP
[12] = Km ATP, read-out: IC50 WT (nM) Km ATP
[13] = Km ATP, read-out: IC50 del19/C797S (nM) Km ATP
[14] = Km ATP, read-out: IC50 L858R/T790M/C797S (nM) Km ATP
[15] = Km ATP, read-out: IC50 L858R/C797S (nM) Km ATP
[16] = Km ATP, read-out: IC50 del19/T790M/C797S, Km ATP
[17] = Km ATP, read-out: IC50 WT, Km ATP
[18] = Km ATP, read-out: IC50 del19/C797S, Km ATP
[19] = Km ATP, read-out: IC50 L858R/T790M/C797S, Km ATP
[20] = Km ATP, read-out: IC50 L858R/C797S, Km ATP

EGFR L858R/C797S, sequence (P00533 25-1210 C797S/L858R): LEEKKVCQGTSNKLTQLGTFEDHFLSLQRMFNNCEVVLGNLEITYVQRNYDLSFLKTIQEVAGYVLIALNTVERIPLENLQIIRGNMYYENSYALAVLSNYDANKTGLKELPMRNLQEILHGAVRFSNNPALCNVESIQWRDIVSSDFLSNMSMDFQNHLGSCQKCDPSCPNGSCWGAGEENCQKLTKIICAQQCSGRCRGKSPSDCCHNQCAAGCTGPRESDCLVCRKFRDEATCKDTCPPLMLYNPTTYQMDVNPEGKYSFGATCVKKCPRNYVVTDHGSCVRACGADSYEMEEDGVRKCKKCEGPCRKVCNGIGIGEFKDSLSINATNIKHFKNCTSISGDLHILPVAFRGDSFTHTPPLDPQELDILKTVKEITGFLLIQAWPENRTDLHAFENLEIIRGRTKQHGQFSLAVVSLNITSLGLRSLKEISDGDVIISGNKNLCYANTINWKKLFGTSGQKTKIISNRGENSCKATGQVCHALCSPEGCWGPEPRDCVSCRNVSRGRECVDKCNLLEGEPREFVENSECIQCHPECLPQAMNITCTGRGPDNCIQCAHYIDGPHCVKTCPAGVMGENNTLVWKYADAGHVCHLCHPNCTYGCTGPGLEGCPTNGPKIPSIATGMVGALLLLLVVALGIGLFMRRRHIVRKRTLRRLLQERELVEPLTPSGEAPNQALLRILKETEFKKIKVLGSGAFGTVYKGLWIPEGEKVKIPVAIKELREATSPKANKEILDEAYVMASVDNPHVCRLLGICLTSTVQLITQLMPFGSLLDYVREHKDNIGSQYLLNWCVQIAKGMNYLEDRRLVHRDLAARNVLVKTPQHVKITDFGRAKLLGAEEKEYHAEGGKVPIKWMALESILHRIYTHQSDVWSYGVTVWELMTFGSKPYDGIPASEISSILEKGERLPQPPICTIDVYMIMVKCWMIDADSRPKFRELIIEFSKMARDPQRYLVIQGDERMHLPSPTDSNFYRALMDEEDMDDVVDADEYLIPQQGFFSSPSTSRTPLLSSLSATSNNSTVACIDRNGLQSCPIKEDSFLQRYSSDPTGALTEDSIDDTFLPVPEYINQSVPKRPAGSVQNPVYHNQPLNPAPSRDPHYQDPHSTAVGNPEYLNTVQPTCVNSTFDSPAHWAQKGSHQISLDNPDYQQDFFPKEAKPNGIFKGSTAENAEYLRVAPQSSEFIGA
EGFR L858R/T790M/C797S, sequence (P00533 25-1210 T790M/C797S/L858R): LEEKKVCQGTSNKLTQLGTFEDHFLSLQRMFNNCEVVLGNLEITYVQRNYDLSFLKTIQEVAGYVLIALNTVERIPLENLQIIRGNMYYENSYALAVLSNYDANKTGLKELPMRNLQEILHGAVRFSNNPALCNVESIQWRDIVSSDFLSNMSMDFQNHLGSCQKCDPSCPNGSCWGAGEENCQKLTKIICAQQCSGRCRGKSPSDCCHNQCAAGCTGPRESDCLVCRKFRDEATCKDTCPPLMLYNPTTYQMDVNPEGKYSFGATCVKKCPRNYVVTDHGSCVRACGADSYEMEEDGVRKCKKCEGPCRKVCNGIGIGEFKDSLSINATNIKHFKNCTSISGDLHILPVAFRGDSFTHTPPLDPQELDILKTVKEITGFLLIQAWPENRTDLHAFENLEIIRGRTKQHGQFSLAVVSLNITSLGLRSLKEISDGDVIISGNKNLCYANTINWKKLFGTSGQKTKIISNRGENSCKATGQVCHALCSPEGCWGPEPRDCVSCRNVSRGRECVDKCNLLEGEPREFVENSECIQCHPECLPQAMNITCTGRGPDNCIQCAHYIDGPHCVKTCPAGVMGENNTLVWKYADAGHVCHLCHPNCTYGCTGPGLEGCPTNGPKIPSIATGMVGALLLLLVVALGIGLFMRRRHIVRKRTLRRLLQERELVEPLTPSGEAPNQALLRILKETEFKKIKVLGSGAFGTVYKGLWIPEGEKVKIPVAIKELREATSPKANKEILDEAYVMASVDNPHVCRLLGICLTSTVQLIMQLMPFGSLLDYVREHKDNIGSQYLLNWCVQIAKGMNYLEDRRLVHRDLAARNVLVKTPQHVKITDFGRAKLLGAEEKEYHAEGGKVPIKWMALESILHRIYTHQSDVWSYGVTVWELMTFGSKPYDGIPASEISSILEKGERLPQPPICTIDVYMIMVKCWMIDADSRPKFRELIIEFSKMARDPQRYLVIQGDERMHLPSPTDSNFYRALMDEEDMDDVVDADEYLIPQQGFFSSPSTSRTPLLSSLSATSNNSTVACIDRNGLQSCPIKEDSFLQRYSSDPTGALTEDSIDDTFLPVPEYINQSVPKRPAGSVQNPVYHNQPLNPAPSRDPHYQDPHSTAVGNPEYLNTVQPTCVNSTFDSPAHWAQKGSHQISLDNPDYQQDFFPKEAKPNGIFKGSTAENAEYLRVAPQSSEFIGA
EGFR del19/C797S, sequence (P00533 with tags, fused parts or gaps DEL746-750/C797S): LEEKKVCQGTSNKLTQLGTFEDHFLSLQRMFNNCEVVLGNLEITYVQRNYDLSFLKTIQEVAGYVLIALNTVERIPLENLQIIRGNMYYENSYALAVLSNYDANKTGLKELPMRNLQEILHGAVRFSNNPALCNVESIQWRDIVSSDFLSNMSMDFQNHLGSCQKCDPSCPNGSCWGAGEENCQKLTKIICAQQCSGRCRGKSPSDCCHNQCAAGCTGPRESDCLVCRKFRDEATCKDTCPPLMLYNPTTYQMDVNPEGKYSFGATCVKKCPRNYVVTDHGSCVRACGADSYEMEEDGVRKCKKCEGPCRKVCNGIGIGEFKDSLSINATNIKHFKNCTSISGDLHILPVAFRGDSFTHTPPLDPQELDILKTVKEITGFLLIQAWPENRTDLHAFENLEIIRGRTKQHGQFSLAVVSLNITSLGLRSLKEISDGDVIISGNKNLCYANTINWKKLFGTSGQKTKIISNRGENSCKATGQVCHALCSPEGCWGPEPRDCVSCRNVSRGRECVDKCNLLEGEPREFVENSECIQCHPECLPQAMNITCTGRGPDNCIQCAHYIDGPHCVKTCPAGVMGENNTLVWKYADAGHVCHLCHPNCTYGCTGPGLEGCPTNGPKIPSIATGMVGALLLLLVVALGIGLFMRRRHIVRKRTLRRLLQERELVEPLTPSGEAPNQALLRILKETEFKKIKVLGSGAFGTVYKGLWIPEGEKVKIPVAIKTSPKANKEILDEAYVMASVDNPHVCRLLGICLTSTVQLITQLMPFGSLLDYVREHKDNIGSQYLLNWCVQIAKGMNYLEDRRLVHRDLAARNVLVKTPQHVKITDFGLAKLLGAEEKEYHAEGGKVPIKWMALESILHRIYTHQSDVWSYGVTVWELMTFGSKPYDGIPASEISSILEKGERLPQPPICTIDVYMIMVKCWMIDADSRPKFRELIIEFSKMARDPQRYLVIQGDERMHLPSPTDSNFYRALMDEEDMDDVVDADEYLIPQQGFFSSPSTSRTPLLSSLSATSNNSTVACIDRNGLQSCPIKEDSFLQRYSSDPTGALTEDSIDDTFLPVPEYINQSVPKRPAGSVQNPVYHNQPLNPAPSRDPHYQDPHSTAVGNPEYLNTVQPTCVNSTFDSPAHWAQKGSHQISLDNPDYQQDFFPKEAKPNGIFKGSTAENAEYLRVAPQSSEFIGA
EGFR del19/T790M/C797S, sequence (P00533 with tags, fused parts or gaps DEL746-750/T790M/C797S): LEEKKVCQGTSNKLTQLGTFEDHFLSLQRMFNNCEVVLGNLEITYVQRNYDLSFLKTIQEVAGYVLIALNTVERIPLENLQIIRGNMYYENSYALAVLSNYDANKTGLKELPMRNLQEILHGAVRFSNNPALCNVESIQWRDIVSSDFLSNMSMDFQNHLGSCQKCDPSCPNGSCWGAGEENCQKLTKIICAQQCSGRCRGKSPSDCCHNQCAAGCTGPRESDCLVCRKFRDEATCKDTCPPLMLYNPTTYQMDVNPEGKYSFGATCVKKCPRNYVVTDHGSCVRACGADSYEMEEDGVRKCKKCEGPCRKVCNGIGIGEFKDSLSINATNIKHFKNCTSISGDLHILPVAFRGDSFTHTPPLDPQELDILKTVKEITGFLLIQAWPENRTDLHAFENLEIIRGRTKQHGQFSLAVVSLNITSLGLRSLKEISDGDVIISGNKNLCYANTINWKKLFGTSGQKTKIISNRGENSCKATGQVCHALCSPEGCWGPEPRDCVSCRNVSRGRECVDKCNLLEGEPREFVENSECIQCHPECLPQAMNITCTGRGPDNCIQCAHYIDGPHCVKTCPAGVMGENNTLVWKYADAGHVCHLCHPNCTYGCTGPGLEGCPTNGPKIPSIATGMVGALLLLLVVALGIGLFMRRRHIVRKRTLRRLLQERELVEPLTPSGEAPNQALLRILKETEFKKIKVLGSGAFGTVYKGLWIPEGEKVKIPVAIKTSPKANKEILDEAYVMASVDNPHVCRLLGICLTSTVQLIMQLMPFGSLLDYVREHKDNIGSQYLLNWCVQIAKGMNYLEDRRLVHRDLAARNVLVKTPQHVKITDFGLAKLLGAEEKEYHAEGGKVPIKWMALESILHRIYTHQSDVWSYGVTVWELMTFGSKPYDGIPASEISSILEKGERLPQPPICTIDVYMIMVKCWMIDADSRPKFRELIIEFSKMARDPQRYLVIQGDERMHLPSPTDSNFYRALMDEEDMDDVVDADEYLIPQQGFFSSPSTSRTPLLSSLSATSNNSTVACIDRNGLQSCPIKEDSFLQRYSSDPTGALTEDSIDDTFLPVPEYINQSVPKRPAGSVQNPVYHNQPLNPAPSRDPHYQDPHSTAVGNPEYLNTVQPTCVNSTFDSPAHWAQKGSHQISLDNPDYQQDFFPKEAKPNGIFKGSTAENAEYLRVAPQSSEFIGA

Structure (SMILES) | IC50 [1, 6] | IC50 [2, 7] | IC50 [3, 8] | IC50 [4, 9] | IC50 [5, 10] | IC50 [1, 11] | IC50 [2, 12] | IC50 [3, 13] | IC50 [4, 14] | IC50 [5, 15] | IC50 [1, 16] | IC50 [2, 17] | IC50 [3, 18] | IC50 [4, 19] | IC50 [5, 20]
CC(C)(O)c1nc(-c2cnc(Nc3ccnc(-c4cnn(S(=O)(=O)C5CC5)c4)n3)cc2N[C@H]2CC[C@@H](O)CC2)cs1 [Example 76, (1s,4s)-4-((2-((2-(1-(Cyclopropylsulfonyl)-1H-pyrazol-4-yl)pyrimidin-4-yl)amino)-5-(2-(2-hydroxypropan-2-yl)thiazol-4-yl)pyridin-4-yl)amino)cyclohexan-1-ol] | 0.7 nM | 1520 nM | 0.4 nM | 2.3 nM | 3 nM |  |  |  |  |  |  |  |  |  | 
O=S(=O)(C1CC1)n1cc(-c2nccc(Nc3cc(NC4CCCN(CCF)C4)c(-c4ccn(C(F)F)n4)cn3)n2)cn1 (stereo not shown) [Example 218, N^2-(2-(1-(Cyclopropylsulfonyl)-1H-pyrazol-4-yl)pyrimidin-4-yl)-5-(1-(difluoromethyl)-1H-pyrazol-3-yl)-N^4-(1-(2-fluoroethyl)piperidin-3-yl)pyridine-2,4-diamine] |  |  |  |  |  | 0.5 nM | 233 nM | 43.9 nM | 0.8 nM | 30.7 nM |  |  |  |  | 
CC(C)(O)[C@H]1CC[C@@H](Nc2cc(Nc3ccnc(-c4cnn(S(=O)(=O)C5CC5)c4)n3)ncc2-c2ccn(C(F)F)n2)CC1 [Example 8, 2-((1s,4s)-4-((2-((2-(1-(Cyclopropylsulfonyl)-1H-pyrazol-4-yl)pyrimidin-4-yl)amino)-5-(1-(difluoromethyl)-1H-pyrazol-3-yl)pyridin-4-yl)amino)cyclohexyl)propan-2-ol] | 5.5 nM | > 10000 nM | 18.8 nM | 5.7 nM | 21.9 nM |  |  |  |  |  |  |  |  |  | 
Cc1nn(CC(F)(F)F)cc1-c1cc(Nc2ncc(-c3ccn(CC(F)(F)F)n3)c(N[C@H]3CC[C@@](C)(O)CC3)n2)ccn1 [Example 370, (1s,4s)-1-Methyl-4-((2-((2-(3-methyl-1-(2,2,2-trifluoroethyl)-1H-pyrazol-4-yl)pyridin-4-yl)amino)-5-(1-(2,2,2-trifluoroethyl)-1H-pyrazol-3-yl)pyrimidin-4-yl)amino)cyclohexan-1-ol] |  |  |  |  |  |  |  |  |  |  | 3.4 nM | 147 nM | 17.4 nM | 1.2 nM | 8.3 nM
O=S(=O)(C1CC1)n1cc(-c2nccc(Nc3cc(NC4CCCC4O)c(-c4ccn(C(F)F)n4)cn3)n2)cn1 (stereo not shown) [Example 29, 2-((2-((2-(1-(Cyclopropylsulfonyl)-1H-pyrazol-4-yl)pyrimidin-4-yl)amino)-5-(1-(difluoromethyl)-1H-pyrazol-3-yl)pyridin-4-yl)amino)cyclopentan-1-ol] | 2.4 nM | > 10000 nM | 77.1 nM | 7.7 nM | 590 nM | 1.1 nM | 218 nM | 89.9 nM | 1 nM | 26.2 nM |  |  |  |  | 
C[C@]1(O)CC[C@@H](Nc2cc(Nc3ccnc(-c4cnn(CC(F)(F)F)c4)n3)ncc2-c2ccn(CC(F)F)n2)CC1 [Example 344, (1s,4s)-4-((5-(1-(2,2-Difluoroethyl)-1H-pyrazol-3-yl)-2-((2-(1-(2,2,2-trifluoroethyl)-1H-pyrazol-4-yl)pyrimidin-4-yl)amino)pyridin-4-yl)amino)-1-methylcyclohexan-1-ol] |  |  |  |  |  |  |  |  |  |  | 0.4 nM | 58.6 nM | 29.5 nM | 0.4 nM | 0.2 nM
CN(C)C[C@H]1CC[C@@H](Nc2cc(Nc3ccnc(-c4cnn(S(=O)(=O)C5CC5)c4)n3)ncc2-c2ccn(CC(F)(F)F)n2)CC1 [Example 266, N^2-(2-(1-(Cyclopropylsulfonyl)-1H-pyrazol-4-yl)pyrimidin-4-yl)-N^4-((1s,4s)-4-((dimethylamino)methyl)cyclohexyl)-5-(1-(2,2,2-trifluoroethyl)-1H-pyrazol-3-yl)pyridine-2,4-diamine] | 0.1 nM | 206 nM | 0.3 nM | 0.1 nM | 0.9 nM |  |  |  |  |  |  |  |  |  | 

Source: US12258327B2, “5-membered heteroaryl-containing aminopyridine compounds as EGFR inhibitors” (YUHAN CORPORATION, priority 2021, dated 2025)
